Results taken from patent US20070134259A1, “Methods and compositions for pharmacologially controlled targeted immunotherapy” (priority 2005, published 2007).

What was measured:
purified integrin αvβ3 = target: T1, purified integrin αvβ3 (Homo sapiens, UniProt P05106+P06756); test: ELISA on purified receptor: RGD-STZ ligand mediated ternary complex formation with anti-STZ rabbit serum; format: binding
T1 construct: purchased Chemicon
Experimental: Indirect recognition of integrin by streptavidin mediated by RGD-biotin was used as positive control.
96 well polystyrene plates (Nunc) were coated with 1 μg/ml of purified integrin αvβ3 (Chemicon) in buffer: 50 mM Hepes , 0.1 M NaCl, 2 mM CaCl2, 1 mM MnCl2, 1 mM MgCl2 pH 7.5. Blocking was performed with 3% BSA in the same buffer for at least 1 hr.
Ternary complex formation was obtained in concurrent or sequential mode. For sequential mode experiment the ELISA plate was incubated with RGD-STZ (root of ten dilutions starting from 10 μg/ml); 2 hr, room temperature, followed by anti-STZ rabbit serum diluted 3000 times, 1 hr RT. In the concurrent mode the incubation mixture contained both RGD-STZ and anti-STZ rabbit serum. Serum concentration was kept constant (1/3000) while RGD-STZ concentration was varied as before; incubation time 2 hr. The formed complex was detected with goat anti-Rabbit HRP conjugate. Dilutions were made in same buffer supplemented with 0.05% Tween and 0.1% BSA. BSA was not included in the washing steps.
Solid-phase assays were conducted in two different formats: concurrent and sequential incubation. In the concurrent format, RGD-STZ was premixed with rabbit serum 1E6 and incubated on the plate, which was pre-coated with integrin αvβ3. In the sequential format, RGD-STZ was incubated on the integrin coated plate, washed and rabbit serum 1E6 was applied. In both formats, the signal was developed by detection of rabbit antibodies with anti-rabbit HRP antibody conjugate. […] This range of IBAIT concentrations in which a stable ternary complex is produced constitutes a therapeutic window, where the IBAIT can be applied for targeting immunoglobulins to malignancies.
That is, the sequential addition of antibody results in the continued formation of stable ternary complexes until receptor saturation plateaus.

HTB-14 cells = test: Ligand-mediated immunostaining of cells via RGD-STZ and anti-STZ serum; format: cell-based; conditions: sequential: RGD-STZ, formaldehyde fixation, anti-STZ serum
Experimental: Cells could be stained through the ligand mediated association of antibody to the integrin molecule on the cell.
Ligand-mediated staining of HTB-14 cells was performed by incubations in sequential order. Cell were first treated with RGD-STZ then fixed with formaldehyde and stained using anti-STZ serum.
Cells were cultivated as described above. For staining, 6 well tissue culture plate containing chambered cover glasses was placed on ice and medium (DMEM, 10% FBS) replaced with same medium containing mixture of RGD-STZ and anti-STZ serum premixed at proportion giving highest signal in ELISA assay (˜10 μg of RGD-STZ in ml of rabbit serum). Mixture of RGD-STZ and serum was diluted in medium 30, 300 and 3000 times.
After 30 min of incubation specimens were washed with ice cold medium 3 times and incubated with Goat anti-Rabbit Alexa488 at concentration 10 μg/ml in DMEM. After 3 rinses with ice cold DMEM cells were fixed with 10% paraformaldehyde in PBS at room temperature, washed with PBS and mounted as above.
In some experiments cells were primed with RGD-STZ (50 μg/ml in DMEM) on ice for 20 min. then fixed with paraformaldehyde and stained further like described in first protocol.

T1 sequence (P06756 31-889 limits assumed): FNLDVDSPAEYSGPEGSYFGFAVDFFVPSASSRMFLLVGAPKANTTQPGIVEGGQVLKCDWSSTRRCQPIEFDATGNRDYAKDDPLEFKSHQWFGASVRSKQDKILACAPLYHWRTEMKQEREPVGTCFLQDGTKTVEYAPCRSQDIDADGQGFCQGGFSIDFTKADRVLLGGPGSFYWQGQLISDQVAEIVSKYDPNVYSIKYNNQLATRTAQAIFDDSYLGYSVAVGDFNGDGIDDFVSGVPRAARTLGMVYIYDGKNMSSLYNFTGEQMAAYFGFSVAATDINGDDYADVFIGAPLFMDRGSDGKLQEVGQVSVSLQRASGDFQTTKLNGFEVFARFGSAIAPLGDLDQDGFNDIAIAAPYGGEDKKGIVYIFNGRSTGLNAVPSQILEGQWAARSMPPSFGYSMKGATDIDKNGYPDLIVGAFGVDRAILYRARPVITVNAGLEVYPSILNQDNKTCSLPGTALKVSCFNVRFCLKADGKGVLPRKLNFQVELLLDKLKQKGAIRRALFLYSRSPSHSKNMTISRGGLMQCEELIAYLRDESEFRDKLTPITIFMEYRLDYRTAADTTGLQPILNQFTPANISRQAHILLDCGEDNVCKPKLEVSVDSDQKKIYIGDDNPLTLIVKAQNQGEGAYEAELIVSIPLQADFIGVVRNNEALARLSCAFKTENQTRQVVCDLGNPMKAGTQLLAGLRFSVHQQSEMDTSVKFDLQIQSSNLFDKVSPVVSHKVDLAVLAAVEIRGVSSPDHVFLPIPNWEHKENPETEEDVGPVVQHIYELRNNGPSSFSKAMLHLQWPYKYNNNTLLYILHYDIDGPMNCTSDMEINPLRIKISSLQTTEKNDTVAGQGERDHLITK
T1 sequence (P06756 891-1048 partner limits assumed): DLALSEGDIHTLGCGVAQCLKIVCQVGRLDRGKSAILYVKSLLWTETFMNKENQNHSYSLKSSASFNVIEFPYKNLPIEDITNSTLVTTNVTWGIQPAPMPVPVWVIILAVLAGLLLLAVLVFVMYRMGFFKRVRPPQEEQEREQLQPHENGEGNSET
T1 sequence (P05106 27-788): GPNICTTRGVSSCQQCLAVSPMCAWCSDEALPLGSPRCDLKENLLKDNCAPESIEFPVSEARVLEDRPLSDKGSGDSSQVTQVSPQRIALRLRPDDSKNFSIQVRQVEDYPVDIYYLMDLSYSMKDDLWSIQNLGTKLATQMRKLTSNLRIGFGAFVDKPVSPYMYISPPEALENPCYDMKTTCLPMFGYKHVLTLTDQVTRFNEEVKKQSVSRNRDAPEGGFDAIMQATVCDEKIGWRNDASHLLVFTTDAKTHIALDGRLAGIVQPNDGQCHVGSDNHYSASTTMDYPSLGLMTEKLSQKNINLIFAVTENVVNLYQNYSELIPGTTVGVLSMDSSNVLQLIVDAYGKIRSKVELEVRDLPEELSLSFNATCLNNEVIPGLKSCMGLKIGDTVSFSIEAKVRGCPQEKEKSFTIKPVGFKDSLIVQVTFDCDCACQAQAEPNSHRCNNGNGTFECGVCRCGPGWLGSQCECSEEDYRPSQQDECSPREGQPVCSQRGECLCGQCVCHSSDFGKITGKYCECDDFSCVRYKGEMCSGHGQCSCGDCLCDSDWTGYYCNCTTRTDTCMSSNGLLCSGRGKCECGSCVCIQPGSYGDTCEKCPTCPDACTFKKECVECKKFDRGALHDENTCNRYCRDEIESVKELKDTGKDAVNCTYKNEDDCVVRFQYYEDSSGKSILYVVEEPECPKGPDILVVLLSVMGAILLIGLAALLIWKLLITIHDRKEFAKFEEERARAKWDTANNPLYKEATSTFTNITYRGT

Substance: cyclo(-R-G-D-f-K(STZ)) [RGD-STZ]
- concentration dependence of ELISA signal (ternary complex formation), concurrent incubation (purified integrin αvβ3; concurrent format: RGD-STZ premixed with rabbit serum, incubated on integrin coated plate, FIG. 5A): bell-shaped concentration dependencies
- indirect recognition of the integrin by anti-STZ antibodies mediated by the ligand (purified integrin αvβ3; plates coated with purified αvβ3 integrin, anti-STZ rabbit serum, goat anti-Rabbit HRP detection): excellent indirect recognition
- proportion of RGD-STZ and anti-STZ serum giving highest signal in ELISA assay (purified integrin αvβ3; premixed RGD-STZ and anti-STZ serum): ~10 μg of RGD-STZ in ml of rabbit serum
- concentration dependence of ELISA signal (ternary complex formation), sequential incubation (purified integrin αvβ3; sequential format: RGD-STZ incubated on integrin coated plate, washed, then rabbit serum, FIG. 5B): signal that steadily increased with increasing RGD-STZ (IBAIT) concentration
- ligand-mediated staining pattern of cells (HTB-14 cells): distinct pattern of dots on the plasma membrane as well as general fluorescent illumination of cells
